Assay results: patent US20090299044A1 (priority 2006, published 2009)
Entries after “also recorded” stand apart in the source; their conditions may differ. Bridge positions count the residues as written; N and C are the ends. Ends that are not written are not given here. Peptide text beside a SMILES is read from it.

Assays:
[1] = tested on: IL-2 production, human whole blood; type: cell-based
[2] = target: human Kv1.1 (Homo sapiens, UniProt Q09470); assay: cell-based; design: expressed in transfected cells; host or cells: HEK293
[3] = target: T1, human Kv1.1 (HEK293) (Homo sapiens, UniProt Q09470); assay: cell-based
T1 construct: expressed in transfected cells; host or cells: HEK293

[4] = target: T2, human Kv1.3 (CHO) (Homo sapiens, UniProt P22001); assay: cell-based
T2 construct: expressed in transfected cells; host or cells: CHO

[5] = target: T3, human Kv1.3 channel (Homo sapiens, UniProt P22001); assay: cell-based; type: cell-based
[6] = target: T3, human Kv1.3 channel; assay: cell-based or functional assay
[7] = target: human Kv1.3 voltage-gated potassium channel (human) (UniProt P22001); assay: cell-based or functional assay
Chain of human Kv1.3 voltage-gated potassium channel (human) (P22001 whole entry): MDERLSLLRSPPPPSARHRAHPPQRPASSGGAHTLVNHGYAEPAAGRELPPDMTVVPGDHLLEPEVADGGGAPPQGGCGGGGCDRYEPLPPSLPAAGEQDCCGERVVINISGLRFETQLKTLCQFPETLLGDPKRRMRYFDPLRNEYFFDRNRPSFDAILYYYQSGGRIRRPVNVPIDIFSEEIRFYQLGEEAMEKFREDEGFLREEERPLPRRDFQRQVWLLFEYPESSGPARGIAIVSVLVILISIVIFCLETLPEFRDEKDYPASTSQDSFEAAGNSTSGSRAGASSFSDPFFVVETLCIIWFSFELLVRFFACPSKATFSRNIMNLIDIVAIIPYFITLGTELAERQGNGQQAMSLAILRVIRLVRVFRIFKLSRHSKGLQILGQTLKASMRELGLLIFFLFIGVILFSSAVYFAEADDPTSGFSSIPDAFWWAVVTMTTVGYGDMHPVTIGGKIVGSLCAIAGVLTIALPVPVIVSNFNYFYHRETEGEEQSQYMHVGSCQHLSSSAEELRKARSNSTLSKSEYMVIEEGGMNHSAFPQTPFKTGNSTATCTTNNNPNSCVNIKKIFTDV

T3 sequence (P22001 whole entry): as above
T2 sequence (P22001 whole entry): as above
Chain of human Kv1.1 (Q09470 whole entry): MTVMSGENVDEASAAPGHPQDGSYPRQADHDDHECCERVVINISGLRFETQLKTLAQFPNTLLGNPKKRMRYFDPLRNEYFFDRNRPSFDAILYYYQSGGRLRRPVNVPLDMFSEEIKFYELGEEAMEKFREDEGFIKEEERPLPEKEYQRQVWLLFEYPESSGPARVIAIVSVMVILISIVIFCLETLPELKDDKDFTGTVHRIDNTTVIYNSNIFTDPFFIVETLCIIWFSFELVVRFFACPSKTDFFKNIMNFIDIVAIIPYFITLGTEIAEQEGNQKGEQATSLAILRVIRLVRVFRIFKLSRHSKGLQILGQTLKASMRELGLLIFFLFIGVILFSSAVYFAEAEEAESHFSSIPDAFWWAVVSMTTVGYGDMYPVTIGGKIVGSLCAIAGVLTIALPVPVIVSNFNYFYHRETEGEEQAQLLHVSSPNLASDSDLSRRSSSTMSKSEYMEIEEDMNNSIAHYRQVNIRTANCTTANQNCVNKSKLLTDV
T1 sequence (Q09470 whole entry): as above

With CC[C@H](C)[C@@H]1NC(=O)[C@H](CCCCN)NC(=O)[C@@H](NC(=O)[C@H](CCCCN)NC(=O)[C@@H](NC(=O)[C@H](CC(N)=O)NC(=O)[C@@H](NC(=O)[C@@H](NC(=O)[C@@H](NC(=O)CN)C(C)C)[C@@H](C)CC)[C@@H](C)CC)C(C)C)CSSC[C@@H]2NC(=O)[C@H](CCCCN)NC(=O)CNC(=O)[C@H](Cc3ccccc3)NC(=O)[C@H](CCCNC(=N)N)NC(=O)[C@H](CCSC)NC(=O)CNC(=O)[C@H](C)NC(=O)[C@H](CCCCN)NC(=O)[C@H](CCCCN)NC(=O)[C@@H]3CSSC[C@@H](C(=O)N[C@H](C(=O)N4CCC[C@H]4C(=O)N[C@@H](CCCCN)C(=O)O)[C@@H](C)O)NC(=O)[C@H](Cc4c[nH]cn4)NC(=O)[C@H](CSSC[C@H](NC(=O)[C@H](CCC(N)=O)NC(=O)[C@H](CCCNC(=N)N)NC(=O)[C@H](CO)NC1=O)C(=O)N[C@@H](CC(C)C)C(=O)N[C@@H](CCC(=O)O)C(=O)N1CCC[C@H]1C(=O)N3)NC(=O)[C@H](CCCCN)NC(=O)CNC(=O)[C@H](CC(N)=O)NC(=O)[C@H](C)NC2=O [OSK1[Ala-29]] (H-GVIINVKCKISRQCLEPCKKAGMRFGKCANGKCHCTPK-OH; disulfide 8-28, 14-33, 18-35) the “potency relative to cyclosporin A in blocking the cytokine response in human whole blood (in words)” value [1] was “several orders of magnitude more potent” and the IC50 ([2]; IC50 on HEK/Kv1.1) was 2700 pM.

Molecule CC[C@H](C)[C@@H]1NC(=O)[C@H](CCCCN)NC(=O)[C@@H](NC(=O)[C@H](CCCCN)NC(=O)[C@@H](NC(=O)[C@H](CC(N)=O)NC(=O)[C@@H](NC(=O)[C@@H](NC(=O)[C@@H](NC(=O)CN)C(C)C)[C@@H](C)CC)[C@@H](C)CC)C(C)C)CSSC[C@@H]2NC(=O)[C@H](CCCCN)NC(=O)CNC(=O)[C@H](Cc3ccccc3)NC(=O)[C@H](CCCNC(=N)N)NC(=O)[C@H](CCSC)NC(=O)CNC(=O)[C@H](C)NC(=O)[C@H](CCCCN)NC(=O)[C@H](CCCCN)NC(=O)[C@@H]3CSSC[C@@H](C(=O)N[C@H](C(=O)N[C@@H](CCC(=O)O)C(=O)N[C@@H](CCCCN)C(=O)O)[C@@H](C)O)NC(=O)[C@H](Cc4c[nH]cn4)NC(=O)[C@H](CSSC[C@H](NC(=O)[C@H](CCC(N)=O)NC(=O)[C@H](CCCNC(=N)N)NC(=O)[C@H](CO)NC1=O)C(=O)N[C@@H](CC(C)C)C(=O)N[C@@H](CCC(=O)O)C(=O)N1CCC[C@H]1C(=O)N3)NC(=O)[C@H](CCCCN)NC(=O)CNC(=O)[C@H](CC(N)=O)NC(=O)[C@H](CCSC)NC2=O [P37E] (H-GVIINVKCKISRQCLEPCKKAGMRFGKCMNGKCHCTEK-OH; disulfide 8-28, 14-33, 18-35) has an IC50 ([2]; Kv1.1 (IC50, pM)) of 15700 pM, an IC50 [3] of 0.622 nM and an IC50 [4] of 0.0627 nM. For the same molecule, the IC50 [5] was 0.241 nM.

Work on CC[C@H](C)[C@@H]1NC(=O)[C@H](CCCCN)NC(=O)[C@@H](NC(=O)[C@H](CCCCN)NC(=O)[C@@H](NC(=O)[C@H](CC(N)=O)NC(=O)[C@@H](NC(=O)[C@@H](NC(=O)[C@@H](NC(=O)CN)C(C)C)[C@@H](C)CC)[C@@H](C)CC)C(C)C)CSSC[C@@H]2NC(=O)[C@H](CCCCN)NC(=O)CNC(=O)[C@H](Cc3ccccc3)NC(=O)[C@H](CCCNC(=N)N)NC(=O)[C@H](CCSC)NC(=O)CNC(=O)[C@H](C)NC(=O)[C@H](CCCCN)NC(=O)[C@H](CCCCN)NC(=O)[C@@H]3CSSC[C@@H](C(=O)N[C@H](C(=O)N4CCC[C@H]4C(=O)N[C@@H](CCCCN)C(=O)O)[C@@H](C)O)NC(=O)[C@H](Cc4c[nH]cn4)NC(=O)[C@H](CSSC[C@H](NC(=O)[C@H](CCC(N)=O)NC(=O)[C@H](C)NC(=O)[C@H](CO)NC1=O)C(=O)N[C@@H](CC(C)C)C(=O)N[C@@H](CCC(=O)O)C(=O)N1CCC[C@H]1C(=O)N3)NC(=O)[C@H](CCCCN)NC(=O)CNC(=O)[C@H](CC(N)=O)NC(=O)[C@H](CCSC)NC2=O [R12A] (H-GVIINVKCKISAQCLEPCKKAGMRFGKCMNGKCHCTPK-OH; disulfide 8-28, 14-33, 18-35) yielded an IC50 ([2]; Kv1.1 (IC50, pM)) of 440 pM, an IC50 [3] of 0.0559 nM and an IC50 [4] of 0.39 nM. It also gave an IC50 [5] of 0.025 nM.

In the case of CC[C@H](C)[C@@H]1NC(=O)[C@H](CCCCN)NC(=O)[C@@H](NC(=O)[C@H](CCCCN)NC(=O)[C@@H](NC(=O)[C@H](CC(N)=O)NC(=O)[C@@H](NC(=O)[C@@H](NC(=O)[C@@H](NC(=O)CN)C(C)C)[C@@H](C)CC)[C@@H](C)CC)C(C)C)CSSC[C@@H]2NC(=O)[C@H](CCCCN)NC(=O)CNC(=O)[C@H](Cc3ccccc3)NC(=O)[C@H](CCCNC(=N)N)NC(=O)[C@H](CCSC)NC(=O)CNC(=O)[C@H](C)NC(=O)[C@H](CCCCN)NC(=O)[C@H](CCCCN)NC(=O)[C@@H]3CSSC[C@@H](C(=O)N[C@H](C(=O)N4CCC[C@H]4C(=O)N[C@@H](CCCCN)C(=O)O)[C@@H](C)O)NC(=O)[C@H](Cc4c[nH]cn4)NC(=O)[C@H](CSSC[C@H](NC(=O)[C@H](CCC(N)=O)NC(=O)[C@H](CCCNC(=N)N)NC(=O)[C@H](CCCNC(=N)N)NC1=O)C(=O)N[C@@H](CC(C)C)C(=O)N[C@@H](CCC(=O)O)C(=O)N1CCC[C@H]1C(=O)N3)NC(=O)[C@H](CCCCN)NC(=O)CNC(=O)[C@H](CC(N)=O)NC(=O)[C@H](CCSC)NC2=O [S11R] (H-GVIINVKCKIRRQCLEPCKKAGMRFGKCMNGKCHCTPK-OH; disulfide 8-28, 14-33, 18-35), the IC50 ([2]; Kv1.1 (IC50, pM)) is reported as 9130 pM, the IC50 [3] is reported as 0.21 nM and the IC50 [4] is reported as 0.0167 nM. The IC50 [5] was 0.04 nM.

Work on CC[C@H](C)[C@@H]1NC(=O)[C@H](CCCCN)NC(=O)[C@@H](NC(=O)[C@H](CCCCN)NC(=O)[C@@H](NC(=O)[C@H](CC(N)=O)NC(=O)[C@@H](NC(=O)[C@@H](NC(=O)[C@@H](NC(=O)CN)C(C)C)[C@@H](C)CC)[C@@H](C)CC)C(C)C)CSSC[C@@H]2NC(=O)[C@H](CCCCN)NC(=O)CNC(=O)[C@H](Cc3ccccc3)NC(=O)[C@H](CCCNC(=N)N)NC(=O)[C@H](CCSC)NC(=O)CNC(=O)[C@H](C)NC(=O)[C@H](CCCCN)NC(=O)[C@H](CCCCN)NC(=O)[C@@H]3CSSC[C@@H](C(=O)N[C@@H](CCC(=O)O)C(=O)N4CCC[C@H]4C(=O)N[C@@H](CCCCN)C(=O)O)NC(=O)[C@H](Cc4c[nH]cn4)NC(=O)[C@H](CSSC[C@H](NC(=O)[C@H](CCC(N)=O)NC(=O)[C@H](CCCNC(=N)N)NC(=O)[C@H](CO)NC1=O)C(=O)N[C@@H](CC(C)C)C(=O)N[C@@H](CCC(=O)O)C(=O)N1CCC[C@H]1C(=O)N3)NC(=O)[C@H](CCCCN)NC(=O)CNC(=O)[C@H](CC(N)=O)NC(=O)[C@H](CCSC)NC2=O [T36E] (H-GVIINVKCKISRQCLEPCKKAGMRFGKCMNGKCHCEPK-OH; disulfide 8-28, 14-33, 18-35) yielded an IC50 ([2]; Kv1.1 (IC50, pM)) of 83900 pM, an IC50 [3] of over 3.33 nM and an IC50 [4] of 0.161 nM. The IC50 [5] was 1.92 nM.

E. coli-derived Fc-L-OSK1 (Fc fusion) showed a Kv1.3 IC50 by WCVC (whole cell patch clamp, HEK293/Kv1.3 cells) [6] of 3.2 nM.

“E. coli-derived Fc-L-ShK[1-35] (Fc fusion)” showed a Kv1.3 IC50 by WCVC (whole cell patch clamp, HEK293/Kv1.3 cells) [6] of 1.4 nM.

With “E. coli-derived Fc-L-ShK[2-35] (Fc fusion)” the Kv1.3 IC50 by IWQ (IonWorks planar patch clamp, CHO/Kv1.3 cells) [6] was 2.8 nM and the Kv1.3 IC50 by WCVC (whole cell patch clamp, HEK293/Kv1.3 cells) [6] was 1.3 nM.

In the case of “E. coli-derived ShK[2-35]-L-Fc (Fc fusion)”, the Kv1.3 IC50 by IWQ (IonWorks planar patch clamp, CHO/Kv1.3 cells) [6] is reported as 4.9 nM.

“E. coli-derived Shk[1-35]-L-Fc (Fc fusion)” gave a Kv1.3 IC50 by IWQ (IonWorks planar patch clamp, CHO/Kv1.3 cells) [6] of 2.4 nM.

With “Fc-L25-ShK[2-35] (CHO-derived) (Fc fusion)” the IC50 of current block, whole cell patch clamp on HEK293/Kv1.3 cells [6] was 0.15 nM.

OSK1 analogue E16K, K20D (peptide) was tested, and the WB/IFNg (IC50, nM), human whole blood [7] was 1.32 nM and the WB/IL-2 (IC50, nM), human whole blood [7] was 1.58 nM.

With “SEQ ID No: 4989: OSK1 analog without beta strand 1 (des 1-7), Table 42 (CKISRQCLKPCKDAGMRFGKCMNGKCHC-NH2; ends and bridges not checked)” the “blockade of the whole blood cytokine response (IL-2 and IFNg), in words” value (“blockade” for short) [1] was “retain activity in blocking inflammation”.

B1: PEGylated CH2-OSK1: CH2-OSK1 fusion protein mono-PEGylated with 20 kD methoxy-PEG-aldehyde (conjugate)
chain: MGGHHHHHHGGGPSVFLFPPKPKDTLMISRTPEVTCVVVDVSHEDPEVKFNWYVDGVEVHNAKTKPREEQYNSTYRVVSVLTVLHQDWLNGKEYKCKVSNKALPAPIEKTISGGGGSGGGGSGVIINVKCKISRQCLEPCKKAGMRFGKCMNGKCHCTPK
With B1 the “blockade” value [1] was “active in blocking inflammation; also recorded: modest blockade”.

B2: FcLoop-L2-OsK1-L2: OsK1 inserted into the human IgG1 Fc-loop between Leu139 and Thr140 with 2-Gly linkers (protein)
chain: MDKTHTCPPCPAPELLGGPSVFLFPPKPKDTLMISRTPEVTCVVVDVSHEDPEVKFNWYVDGVEVHNAKTKPREEQYNSTYRVVSVLTVLHQDWLNGKEYKCKVSNKALPAPIEKTISKAKGQPREPQVYTLPPSRDELGGGVIINVKCKISRQCLEPCKKAGMRFGKCMNGKCHCTPKGGTKNQVSLTCLVKGFYPSDIAVEWESNGQPENNYKTTPPVLDSDGSFFLYSKLTVDKSRWQQGNVFSCSVMHEALHNHYTQKSLSLSPGK
modifications: Definition of Artificial Sequence: Synthetic protein
In the case of B2, the “blockade” value [1] is reported as “potent blockade”.

B3: FcLoop-L2-ShK-L2: ShK inserted into the human IgG1 Fc-loop with 2-Gly linkers (protein)
chain: MDKTHTCPPCPAPELLGGPSVFLFPPKPKDTLMISRTPEVTCVVVDVSHEDPEVKFNWYVDGVEVHNAKTKPREEQYNSTYRVVSVLTVLHQDWLNGKEYKCKVSNKALPAPIEKTISKAKGQPREPQVYTLPPSRDELGGRSCIDTIPKSRCTAFQCKHSMKYRLSFCRKTCGTCGGTKNQVSLTCLVKGFYPSDIAVEWESNGQPENNYKTTPPVLDSDGSFFLYSKLTVDKSRWQQGNVFSCSVMHEALHNHYTQKSLSLSPGK
modifications: Definition of Artificial Sequence: Synthetic protein
For B3, the “blockade” value [1] was “potent blockade”.
